pIC50: −log10 of the molar value.
How the values were obtained:
Prostrate PC-3 = test: In vitro cytotoxicity (sulforhodamine B) against human cancer cell lines, Prostrate PC-3; assay type: cell-based; details: read-out: % GROWTH INHIBITION Prostrate PC-3; for inhibition at 50 µM: Conc 5 × 10^−5 M, 48 hours
Protocol: (§1) The human cancer cell lines procured from National Cancer Institute, Frederick, U.S.A., were used in present study. Cells were grown in tissue culture flasks in complete growth medium (RPMI-1640 medium with 2 mM glutamine, 100 μg/mL streptomycin, pH 7.4, sterilized by filtration and supplemented with 10% fetal bovine serum and 100 units/ml penicillin before use) at 37° C. in an atmosphere of 5% CO2 and 90% relative humidity in a carbon dioxide incubator. The cells at subconfluent stage were harvested from the flask by treatment with trypsin (0.05% in PBS containing 0.02% EDTA) for determination of cytotoxicity. The cell suspension of the required cell density was prepared in complete growth medium with gentamycin (50 μg/mL) for determination of cytotoxicity.
(§2) Stock solutions of 2×10^−2M of test materials were prepared in DMSO. The stock solutions were serially diluted with complete growth medium containing 50 μg/ml of gentamycin to obtain working test solution of 2×10^−5M to obtain final concentration of 1×10^−5 M respectively.
(§3) In vitro cytotoxicity against human cancer cell lines was determined (Monks of al., J. Natl. Cancer Inst. 1991, 83, 757-766). The 100 μL of cell suspension was added to each well of the 96-well tissue culture plate. The cells were incubated for 24 hours (at 37° C. in an atmosphere of 5% CO2 and 90% relative humidity in a carbon dioxide incubator). Test materials in complete growth medium (100 μL) were added after 24 hours incubation to the wells containing cells. The plates were further incubated for 48 hours in a carbon dioxide incubator after addition of test material. The cell growth was stopped by gently layering trichloroacetic acid (50 μL, 50% w/v) on top of the medium in all the wells. The plates were incubated at 4° C. for one hour to fix the cells attached to the bottom of the wells. The liquid of all the wells was then gently decanted and discarded. The plates were washed five times with distilled water and air-dried. Cell growth was measured by staining with sulforhodamine B dye (Skehan et al., J. Natl. Cancer Inst. 1990, 82, 1107-1112). The adsorbed dye was dissolved in Tris-Buffer (100 μL, 0.01M, pH 10.4) and plates were gently stirred for 10 minutes on a mechanical stirrer. The optical density (OD) was recorded on ELISA reader at 540 nm.
(§4) The cell growth was calculated by subtracting mean OD value of respective blank from the mean OD value of experimental set. Percent growth in presence of test material was calculated considering the growth in absence of any test material as 100% and in turn percent growth inhibition in presence of test material was calculated. Suitable blank, controls and positive controls were included in the study.

Colon Colo-205 = test: In vitro cytotoxicity (sulforhodamine B) against human cancer cell lines, Colon Colo-205; assay type: cell-based; details: read-out: % GROWTH INHIBITION Colon Colo-205; for inhibition at 50 µM: Conc 5 × 10^−5 M, 48 hours
Protocol: as §1, §2, §3, §4

Ovary IGR-OV-1 = test: In vitro cytotoxicity (sulforhodamine B) against human cancer cell lines, Ovary IGR-OV-1; assay type: cell-based; details: IGROV-1, Conc 5 × 10^−5 M, 48 hours, read-out: % GROWTH INHIBITION Ovary IGR-OV-1
Protocol: as §1, §2, §3, §4

Neuroblastoma IMR-32 = test: In vitro cytotoxicity (sulforhodamine B) against human cancer cell lines, Neuroblastoma IMR-32; assay type: cell-based; details: read-out: % GROWTH INHIBITION Neuroblastoma IMR-32; for inhibition at 50 µM: Conc 5 × 10^−5 M, 48 hours
Protocol: as §1, §2, §3, §4

Lung A-549 = test: In vitro cytotoxicity (sulforhodamine B) against human cancer cell lines, Lung A-549; assay type: cell-based; details: read-out: % GROWTH INHIBITION Lung A-549; for inhibition at 50 µM: A549, Conc 5 × 10^−5 M, 48 hours
Protocol: as §1, §2, §3, §4

Breast MCF-7 = test: In vitro cytotoxicity (sulforhodamine B) against human cancer cell lines, Breast MCF-7; assay type: cell-based; details: read-out: % GROWTH INHIBITION Breast MCF-7; for inhibition at 50 µM: MCF7, Conc 5 × 10^−5 M, 48 hours
Protocol: as §1, §2, §3, §4

Prostrate DU-145 = test: In vitro cytotoxicity (sulforhodamine B) against human cancer cell lines, Prostrate DU-145; assay type: cell-based; details: read-out: % GROWTH INHIBITION Prostrate DU-145; for inhibition at 50 µM: Conc 5 × 10^−5 M, 48 hours
Protocol: as §1, §2, §3, §4

[1] = tested on: cell line panels consisting of 60 lines; details: nine disease-related subpanels; cited from earlier work
P388 leukemia = details: NCI Report on NSC 369397, 25 Oct. 1983; cited from earlier work
[2] = tested on: Ehrlich ascites tumor (EAT) cells; details: MTT assay, read-out: IC50 (drug concentration causing 50% growth inhibition of the tumor cells); cited from earlier work
[3] = Conc 1 × 10^−5 M, positive control

SMILES | inhibition at 50 µM (Prostrate PC-3) | inhibition at 50 µM (Colon Colo-205) | inhibition at 50 µM (Ovary IGR-OV-1) | inhibition at 50 µM (Neuroblastoma IMR-32) | inhibition at 50 µM (Lung A-549) | inhibition at 50 µM (Breast MCF-7) | inhibition at 50 µM (Prostrate DU-145) | other results
C=C(C#N)[C@H](O)C[C@H]1O[C@@H]2O[C@]3(C)CC[C@H]4[C@H](C)CC[C@@H]([C@H]1C)[C@@]24OO3 (single isomer, unassigned) [Compound 3b] | 65% | 56% | 42% | 48% | 66% | 46% | 46% | –
C=C(C#N)[C@@H](O)C[C@H]1O[C@@H]2O[C@]3(C)CC[C@H]4[C@H](C)CC[C@@H]([C@H]1C)[C@@]24OO3 (single isomer, unassigned) [Compound 3b′] | 78% | 75% | 56% | 62% | 77% | 55% | 60% | –
O=c1[nH]cc(F)c(=O)[nH]1 [5-Fluorouracil, reference compound] | – | – | – | – | – | – | – | inhibition at 20 µM (Colon Colo-205; Conc 2 × 10^−5 M, positive control): 54%
COc1cccc2c1C(=O)c1c(O)c3c(c(O)c1C2=O)C[C@@](O)(C(=O)CO)C[C@@H]3O[C@H]1C[C@H](N)[C@H](O)[C@H](C)O1 [Adriamycin, reference compound] | – | – | – | – | – | – | – | inhibition at 1 µM (Neuroblastoma IMR-32; Conc 1 × 10^−6 M, positive control): 70%; inhibition at 1 µM (Breast MCF-7; MCF7, Conc 1 × 10^−6 M, positive control): 72%
C[C@@H]1CC[C@H]2[C@@H](C)C(=O)O[C@@H]3O[C@@]4(C)CC[C@@H]1[C@]32OO4 [Artemisinin, artemisinin] | 22% | 40% | 26% | 23% | 29% | 34% | 38% | anticancer activity on 60 cell line panels [1]: very little anticancer activity; activity against P388 leukemia (P388 leukemia): inactive; pIC50 [2]: 4.53
C=C(C(=O)OC)[C@H](O)C[C@H]1O[C@@H]2O[C@]3(C)CC[C@H]4[C@H](C)CC[C@@H]([C@H]1C)[C@@]24OO3 [Compound 3a] | – | – | 63% | 56% | 70% | – | – | –
C=C(C(C)=O)[C@H](O)C[C@H]1O[C@@H]2O[C@]3(C)CC[C@H]4[C@H](C)CC[C@@H]([C@H]1C)[C@@]24OO3 [Compound 3c] | 81% | 100% | 33% | 79% | 85% | 66% | 73% | –
C[C@H]1[C@@H](C[C@@H](O)C2=CCCCC2=O)O[C@@H]2O[C@]3(C)CC[C@H]4[C@H](C)CC[C@@H]1[C@@]24OO3 [Compound 3d] | 68% | 63% | 60% | 72% | 66% | 43% | 52% | –
CO[C@@]12[C@H](COC(N)=O)C3=C(C(=O)C(C)=C(N)C3=O)N1C[C@@H]1N[C@@H]12 [Mitomycin, reference compound] | – | – | – | – | – | – | – | inhibition at 10 µM (Prostrate PC-3; [3]): 54%; inhibition at 10 µM (Prostrate DU-145; [3]): 92%
CC(=O)O[C@H]1C(=O)[C@@]2(C)[C@H]([C@H](OC(=O)c3ccccc3)[C@]3(O)C[C@H](OC(=O)[C@H](O)[C@@H](NC(=O)c4ccccc4)c4ccccc4)C(C)=C1C3(C)C)[C@]1(OC(C)=O)CO[C@@H]1C[C@@H]2O [Paclitaxel, reference compound] | – | – | – | – | – | – | – | inhibition at 10 µM (Lung A-549; A549, Conc 1 × 10^−5 M, positive control): 69%

From patent US8841466B2, “Series of artemisinin derivatives and process for preparation thereof” (Council of Scientific & Industrial Research, priority 2010, dated 2014)
